Here are results for eleven compounds from US8466185B2, “Methods and assays for detecting and treating hypoglycemia” (priority 2008, dated 2013).

Entries after “also recorded” stand apart in the source; their conditions may differ.

In data set [1] the test system is human islets. Briefly: in vitro perifusion, glucagon secretion from human islets. Format: cell-based. The conditions noted are these: for effect on basal glucagon secretion or glucagon responses to glutamate: 100 μM.
Experimental: (§3) A high-capacity, automated perifusion system was developed to dynamically measure hormone secretion from pancreatic islets. A low pulsatility peristaltic pump pushed HEPES-buffered solution (mM: 125 NaCl, 5.9 KCl, 2.56 CaCl2, 1 MgCl2, 25 HEPES, and 0.1% BSA; pH 7.4; and a perifusion rate of 100 μL/min) through a column containing 100 pancreatic islets immobilized in Bio-Gel P-4 Gel (BioRad, Hercules, Calif.). Except otherwise stated, glucose concentration was adjusted to 3 mM for all experiments. Stimuli were applied with the perifusion buffer. The perifusate was collected in an automatic fraction collector designed for a 96 well plate format. The columns containing the islets and the perifusion solutions were kept at 37° C., and the perifusate in the collecting plate was kept at <4° C. Perifusates were collected every minute. Hormone release in the perifusate was determined with the human or mouse Endocrine LINCOplex Kit following manufacturer's instructions (Linco research, St. Charles, Mo.).
Data set [2] relates to mouse islets. In words: perifusion, glucagon secretion from mouse islets. Format: cell-based, mouse (C57Bl/6).
Experimental: as §3
For data set [3], the system named is C57BL/6 mice. Briefly: in vivo responses to iGluR agonists injected i.p. Also noted: species or system mouse. Here is the method: (§1) We examined in vivo responses to iGluR agonists by injecting C57BL/6 mice i.p. with either PBS (n=4), monosodium glutamate (30 mg/kg; n=7), or AMPA (15 mg/kg; n=8). To determine whether blocking iGluRs exacerbates insulin-induced hypoglycemia, we injected the AMPA/kainate iGluR antagonist NBQX (Tocris, Ellisville, Mo.) i.p. at 20 mg/kg 30 minutes before mice were treated with insulin to induce hypoglycemia.

In data set [4] the test system is human islets. Briefly: in vitro perifusion, insulin release from human islets. The conditions noted are these: 100 μM.
Experimental: as §3
Data set [5] concerns monkey islets. Briefly: in vitro perifusion, insulin release from monkey islets. To be noted: 100 μM; not shown.
Data set [6] has as its system human islets and dispersed single islet cells. In words: [Ca^2+]i imaging (Fura-2) of human islets and dispersed islet cells. The data set is classed as cell-based. The conditions noted are these: CNQX 10 μM. How it is done: (§2) Glucose was added to give a final concentration of 3 mM. Islets or dispersed islet cells were incubated in Fura-2 AM (2 μM; 1 hour) and placed in a closed small-volume imaging chamber (Warner Instruments, Hamden, Conn.). Stimuli were applied with the bathing solution. Islets loaded with Fura-2 were excited alternatively at 340 and 380 nm with a monochromator light source (Cairn. Research Optoscan Monochromator, Cairn Research Ltd, Faversham, UK). Images were acquired with a Hamamatsu camera (Hamamatsu Corp, Japan) attached to a Zeiss Axiovert 200 microscope (Carl Zeiss, Jena, Germany). Changes in the 340/380 fluorescence emission ratio over time were analyzed in individual islets and dispersed cells using Kinetic Imaging AQM Advance software (Kinetic Imaging, N.C.). Peak changes in the fluorescence ratio constituted the response amplitude.

Data set [7] concerns monkey islets and dispersed single islet cells. Briefly: [Ca^2+]i imaging (Fura-2) of monkey islets and islet cells. Format: cell-based, monkey (Macacca fascicularis). The conditions noted are these: nifedipine 10 μM; for inhibition of [Ca^2+]i responses to kainate: CNQX 10 μM, La^3+ 30 μM. Here is the method:
as §2, with “Imaging of [Ca^2+]i was performed as described elsewhere (Cabrera et al., 2006). […] Glucose” for “Glucose”

In data set [8] the test system is human islets. Format: cell-based. The conditions noted are these: CNQX 10 μM; measured at 8 minutes after reducing glucose. Here is the method:
Perifusion of the islets was stopped after addition of the stimulus to allow the islet secretory products to accumulate and then resumed after 10 minutes.

Data set [9] concerns monkey islets. Briefly: microfluorometric determination of endogenous glutamate release from islets. The data set is classed as cell-based. To be noted: kainate 100 μM; KCl 30 mM. Here is the method: Endogenous glutamate release from pancreatic islets was measured with the Amplex Red Glutamic Acid Assay Kit (Molecular Probes) adapted for microscopic microfluorometric detection (Akagi et al., 2003). In this assay, released glutamate is a substrate in an enzymatic chain reaction that generates the highly fluorescent product resorufin (Molecular Probes, Eugene, Oreg.). L-glutamate is oxidized by glutamate oxidase to produce α-ketoglutarate, NH4, and H2O2. Hydrogen peroxide reacts with the Amplex Red reagent in a reaction catalyzed by horseradish peroxidase to generate resorufin. Pancreatic islets were allowed to attach to a glass coverslip previously coated with poly-D-lysine. The coverslip was mounted in a closed small-volume imaging chamber (Warner Instruments) and perifused with the HEPES-buffered solution containing the stimuli. Resorufin fluorescence was excited at 510 nm, and the emission recorded at 590 nm using the same imaging system used to measure [Ca^2+]i (see above).

The test system of data set [10] is mice. The data set is classed as in vivo, mouse. To be noted: NBQX 20 mg/kg i.p. How it is done: as §1
In initial experiments, mice were injected with insulin (1.5 U/kg; i.p.) to induce hypoglycemia.

In data set [11] the test system is mice. In words: hyperinsulinemic-hypoglycemic clamp in conscious mice. The data set is classed as in vivo, mouse. To be noted: NBQX 10 mg/kg iv versus saline. How it is done: To provide a standardized hypoglycemic stimulus we further conducted studies using the hyperinsulinemic-hypoglycemic clamp. At least 4 days before the experiments, mice were anesthetized with isoflurane, and an indwelling catheter was inserted in the left jugular vein and externalized through an incision in a skin flap behind the head. Mice were fasted for 4 hours and placed in individual plastic containers for tail cut sampling. […] A priming dose of insulin (100 mU/kg) was administered, followed by a constant infusion rate of 20 mU/kg/min (Actrapid, Novo Nordisk). The plasma glucose concentration was determined at 10 min intervals using a One Touch Ultra glucose meter. Glucose (30%) was infused at a variable rate to maintain the plasma glucose concentration at the hypoglycemic levels (˜3 mM). At time 50 min, a hyperinsulinemic-hypoglycemic clamp was achieved. Blood glucose levels were kept at the steady state (3 mM) and NBQX was administered as a bolus (10 mg/kg) at time 60 min, followed by infusion (10 mg/kg) until the end of the experiment. A control experiment was performed using saline (0.9% NaCl) following the same protocol used for NBQX. […] Animals were euthanized by an over-dose of pentobarbital.

Data set [12] concerns isolated human islet cells. In words: whole-cell patch clamp recordings of dispersed human islet cells. Format: cell-based. The conditions noted are these: NBQX 10 μM; kainate 100 μM. Here is the method: Membrane currents were measured using whole-cell patch clamp recordings of dispersed human islet cells. All recordings were amplified using an EPC10 patch-clamp amplifier and digitized and analyzed using Patchmaster software (Heka Elektronik, Lambrecht, Germany). Pipettes were pulled from borosilicate glass capillaries on a horizontal programmable puller (DMZ Universal Puller, Zeitz-Instrumente, Augsburg, Germany). Pipettes with a resistance of 5-7 MΩ were filled with a pipette solution containing (in mM): 150 NMG (N-methyl-D-Glucamine), 10 EGTA, 1 MgCl2, 2 CaCl2, 5 HEPES and 3 Mg-ATP (pH 7.15). The bath solution contained (in mM): 138 NaCl, 5.6 KCl, 1.2 MgCl2, 2.6 CaCl2, 5 HEPES and 10 TEA (pH7.4). Cells were voltage-clamped at −70 mV. Ligands (e.g. kainate) were applied using the SF-77B Perfusion Fast-Step system (Warner Instruments, Hamden, Conn.), which allows rapid change of solutions bathing a single cell or membrane patch attached to a patch electrode. […] Thus, it is most likely that cells responding to kainate in our electrophysiological experiments were α-cells.

Data set [13] has as its system mouse islets. Briefly: perifusion of mouse islets with β cells destroyed by streptozotocin versus intact islets. The data set is classed as cell-based. The conditions noted are these: arginine 5 mM; streptozotocin-treated versus intact islets. How it is done: This experiment was performed with mouse islets. Two samples were perifused in parallel (“a” and “b”). In “a” (blue curve and blue bar), but not in “b” (red curve and red bar) the β cells were selectively destroyed with streptozotocin. This absence of β cells generates type 1 diabetes-like condition in vitro. The glucagon release profile in panel “A” was obtained by using this model. […] Note that the non specific stimulus arginine is not able to differentiate a functionally impaired α cell in the absence of β cells.
At t=5 min, both samples were stimulated with 100 μM kainate for 5 min. The glucose was increased to 11 mM for 10 minutes and decreased again to 3 mM for the duration of the perifusion. At t=45 min, both samples (v) were stimulated with 5 mM Arginine. […] Kainate is a glutamate analog that is not metabolizable, and therefore a preferred agonist of the AMPA/Kainate receptors. Error bars represent the standards deviations for n=3 perifusions. Comparison were performed by an independent t-test.
For example, in some embodiments the present invention are directed to an in vitro model in which we destroy selectively the beta cells with, for example, streptozotocin, thus creating a situation that mimics type 1 diabetes. The treated islets are composed mainly of alpha cells. […] To examine if alpha cells in islets depleted of beta cells had impaired glutamate signaling, we stimulated them with kainate, an agonist for ionotropic glutamate receptors.

As to `NC1(C(=O)O)C[C@H](C(=O)O)[C@H](C(=O)O)C1` (stereo partly shown) [ACPT-1], the “effect on basal glucagon secretion or glucagon responses to glutamate” value (“effect … to glutamate” for short) in [1] was “did not elicit changes in glucagon secretion; also recorded: did not affect basal glucagon secretion or glucagon responses to glutamate”. Moreover, the “effect on basal or glutamate-induced glucagon secretion” value in data set [2] (100 μM) is “did not affect basal or glutamate-induced glucagon secretion; also recorded: did not elicit changes in glucagon secretion”.

On to `Cc1o[nH]c(=O)c1CC(N)C(=O)O` (stereo not shown) [AMPA], for which, in data set [3] (AMPA 15 mg/kg i.p.), the “convulsions indicative of central nervous penetration” value is reported as “did not induce convulsions”. Besides, the plasma insulin concentrations result in data set [3] (glutamate 30 mg/kg, AMPA 15 mg/kg, i.p.) is “not affected; also recorded: did not change”. Besides, in data set [3] (glutamate 30 mg/kg, AMPA 15 mg/kg, i.p., 30 minutes after treatment), the plasma glucagon concentrations result is given as “increased plasma glucagon concentrations”. Also, in data set [3] (glutamate 30 mg/kg, AMPA 15 mg/kg, i.p., thirty minutes after injection), the plasma glucose concentrations entry is given as “increased glucose levels; also recorded: increased plasma glucose concentrations”. Also, the insulin release entry in [4] is given as “Neither kainate (100 μM), glutamate (100 μM), nor AMPA (100 μM) stimulated increases in insulin release”; in data set [5] it was “Neither kainate (100 μM), glutamate (100 μM), nor AMPA (100 μM) stimulated increases in insulin release”. For the same compound, the “glucagon release / glucagon secretion” value in [1] (agonist 100 μM, 3 mM glucose) is recorded as “elicited strong glucagon secretion; also recorded: Increases in glucagon release could also be elicited”. Also, the “glucagon release / secretion” value in data set [2] (100 μM) is “stimulated glucagon secretion”.

With `N#Cc1cc2[nH]c(=O)c(=O)[nH]c2cc1[N+](=O)[O-]` [CNQX], the “block of [Ca^2+]i responses to glutamate” value in [6] is reported as “could be blocked”. Moreover, in data set [7], the “inhibition of [Ca^2+]i responses to kainate” value is on record as “inhibited; also recorded: blocked”. Moreover, the “inhibition of glucagon response to lowering glucose from 6 mM to 1 mM” value in data set [8] is 54%. Moreover, the “block of glutamate-induced glucagon responses” value in data set [1] (CNQX 10 μM) is “could be blocked”.

Take `NC(C(=O)O)(c1ccc(P(=O)(O)O)cc1)C1CC1` (stereo not shown) [CPPG]: the “effect … to glutamate” value in data set [1] is listed as “did not affect the glutamate-induced glucagon response; also recorded: did not affect basal glucagon secretion or glucagon responses to glutamate”. Further, the “effect on basal or glutamate-induced glucagon secretion” value in data set [2] (100 μM) is on record as “did not affect basal or glutamate-induced glucagon secretion; also recorded: did not affect the glutamate-induced glucagon response”.

As for `O=[N+]([O-])c1cc2nc(O)c(O)nc2cc1[N+](=O)[O-]` [DNQX], in data set [2] (DNQX 10 μM, glutamate 100 μM), the “block of glutamate-stimulated glucagon release” value is “blocked”.

In the case of `[Cl-].[K+]` [KCl], in data set [9], the “glutamate release (resorufin fluorescence)” value is “induced significant glutamate release; also recorded: elicited large increases in glutamate release”.

Take `[La+3]` [La^3+]: in data set [7], the “inhibition of [Ca^2+]i responses to kainate” value was “inhibited; also recorded: abolished”. Besides, in data set [1], the “kainate-stimulated glucagon secretion in presence of Ca^2+ channel blockers” value was “strongly diminished”.

For the compound `NS(=O)(=O)c1cccc2c1c([N+](=O)[O-])cc1nc(O)c(O)nc12` [NBQX], the sedation result in data set [10] was “did not cause sedation”. Also, in [10] (insulin 1.5 U/kg i.p., not shown), the “insulin-induced drop in glucose plasma levels” value is on record as “increased the insulin-induced drop in glucose plasma levels”. In [11], the “glucose infusion rate needed to maintain glycemia (~3 mM)” value was “needed larger infusion rates of glucose; also recorded: significantly larger” and the “plasma glucagon / glucagon secretion in response to hypoglycemia” value is given as “lower; also recorded: significantly diminished”. The “block of kainate-evoked inward currents” value in data set [12] is “could be blocked”.

Turning to `N=C(N)NCCC[C@H](N)C(=O)O` [arginine], the “arginine-induced glucagon release in absence versus presence of β cells” value in data set [13] was “not statistically different”.

Regarding `COC(=O)C1=C(C)NC(C)=C(C(=O)OC)C1c1ccccc1[N+](=O)[O-]` [nifedipine], the “reduction of kainate-induced [Ca^2+]i responses” value in [7] is reported as around 60%.

Regarding `N[C@@]1(C(=O)O)CC[C@@H](C(=O)O)C1` [trans-ACPD], the “effect … to glutamate” value in data set [1] is given as “did not affect basal glucagon secretion or glucagon responses to glutamate”; in [1] (listed as tACPD), “did not elicit changes in glucagon secretion”. Besides, the “effect on basal or glutamate-induced glucagon secretion” value is reported as “did not affect basal or glutamate-induced glucagon secretion” in data set [2] (100 μM) and “did not elicit changes in glucagon secretion” in data set [2] (100 μM, listed as tACPD).
